# Assay results taken from PMC4550478, “Metronidazole-triazole conjugates: Activity against Clostridium difficile and parasites” (European Journal of Medicinal Chemistry, 2015).
# Read-outs that look alike come from different tables or passages of the source.
# How the values were obtained:
# [1] = test system: C. difficile NAP1/027 CD26A54_S; assay: MIC broth microdilution, C. difficile CD26A54_S; type: cell-based, Clostridium difficile; conditions: Clostridioides difficile
# G. lamblia 713-M3 (713M) = assay: ATP-bioluminescence growth and survival assay, metronidazole resistant G. lamblia 713-M3; type: cell-based; conditions: Giardia duodenalis, read-out: EC50 G. lamblia 713M
# Description: Compounds were tested for antiparasitic activity against E. histolytica (HM1:1MSS strain) and G. lamblia (WB, BRIS/87/HEPU/713 (713), BRIS/83/HEPU/106 (106) and the metronidazole resistant syngeneic line 713-M3 [[15,16]]) using an ATP-bioluminescence based screen for cell growth and survival [[17,18]]. Assay plates were inoculated with trophozoites (5 × 10^3 parasites/well) and incubated in the GasPak™ EZ Anaerobe Gas Generating Pouch Systems (VWR, West Chester, PA) to maintain anaerobic conditions throughout the incubation period. The assays were performed in triplicate using the CellTiter-Glo Luminescent Cell Viability Assay. Metronidazole was used as a positive control.
# Trophozoites of E. histolytica strain HM1:IMSS and G. lamblia strains WB, BRIS/87/HEPU/713 (713),^10 BRIS/83/HEPU/106 (106)^11 and the metronidazole resistant syngenic line 713-M3^10,11 were axenically maintained in TYI-S-33 medium supplemented with penicillin (100 U/ml), streptomycin (100 µg/ml).^12 E. histolytica and G. lamblia trophozoites were counted using a particle counter (Beckman Coulter, Fullerton, CA). All experiments were performed using trophozoites harvested during the logarithmic phase of growth.
# A three-fold serial dilution was then performed yielding a concentration range 0.25-625 µM. From this dilution plate, 4 µL were transferred into the 96-well screen plates followed by addition of 96 µL of trophozoites (5,000 parasites) to yield a final 8-point concentration range spanning 0.01- 25 µM. Assay plates were incubated for 48 h at 37 °C in the GasPak^TM EZ Anaerobe Gas Generating Pouch Systems (VWR, West Chester, PA) to maintain anaerobic condition throughout the incubation period. The assays were performed in triplicate using the CellTiter-Glo Luminescent Cell Viability Assay.^13
# [2] = test system: C. difficile VPI10463 ATCC 43255; assay: MIC broth microdilution, C. difficile VPI 10463; type: cell-based, Clostridium difficile; conditions: Clostridioides difficile, ATCC 43255 / ATCC BAA-1803; VPI 10463, MtzS, 24 h, median of at least n = 4
# Description: (§1) All compounds were tested for activity against a set of anaerobic C. difficile bacteria (630 ATCC BAA-1382, NAP1/027 M7404, NAP1/027 ATCC BAA-1803, VPI10463 ATCC 43255, CD26A54_S and CD26A54_R) and representative ESKAPE pathogens S. aureus (MRSA ATCC 43300), E. coli (ATCC 25922), K. pneumoniae (ATCC 700603), A. baumannii (ATCC 19606) and P. aeruginosa (ATCC 27853) using a standard broth microdilution assay. Selected compounds were tested for activity against H. pylori strains (26695, and clinical isolates MtzS 13/25, MtzR 98/285 and MtzR 13/61) using agar plate dilution, and for antimicrobial activity against […] Gram-positive bacterial strains: Enterococcus faecalis (VanA clinical isolate), Enterococcus faecium (MDR VanA ATCC 51559), Streptococcus pneumoniae (MDR ATCC 700677), S. aureus (MRSA ATCC 43300, MRSA clinical isolate, MRSA/DRSA clinical isolate, GISA NARSA NRS 1, GISA NARSA NRS 17, VRSA NARSA VRS1, VRSA NARSA VRS4 and VRSA NARSA VRS10) using broth microdilution. C. difficile strains were grown at 37 °C in a COY anaerobic chamber (5% H2, 10% CO2, 85% N2). H. pylori strains were grown at 37 °C under a microaerobic atmosphere (5% O2, 10% CO2). All facultative anaerobic bacteria were grown at 37 °C with normal atmospheric oxygen levels. All experiments were performed in duplicate with metronidazole, vancomycin, linezolid or colistin as positive controls for relevant strains (see Table 1). Positive growth control of bacteria and DMSO as well as a negative control of only media were included for every plate. Full assay details are provided in the supplementary information.
# (§2) C. difficile ATCC BAA-1382, ATCC BAA-1803, ATCC 43255 and M7404 heat shocked spore stocks (10 µL) were transferred into the anaerobic chamber and 10 µL streaked onto pre-reduced (at least 2.5 hr in anaerobic chamber) BHIS agar plates supplemented with 0.1% w/v sodium taurocholate (BHIS(TA)). Plates were incubated for 24 hours prior to assay to give colonies of size 1-3mm diameter with characteristic uneven borders.
# (§3) The minimum inhibition concentration was determined according to the CLSI Methods with modifications in broth and inoculum for C. difficile according to Babakhani et al.^7,8 Briefly, compounds were prepared to 20X final concentration in 100% water, 60% DMSO and 40% water or 60% DMSO and 40% media. The compounds along with standard antibiotics were serially diluted two-fold across the wells of 96-well non-binding surface plates (Non binding surface, Corning). The plates were placed in the anaerobic chamber overnight to reduce. C. difficile bacteria from BHIS(TA) agar plates were cultured anaerobically in BHIS at 37 °C overnight. A sample of culture was then diluted 40-fold in BHIS broth and incubated at 37 °C for approximately 4.5 hrs. The resultant mid-log phase culture (OD600= 0.5-0.6) was diluted to the final concentration of ~1×10^6 CFU/mL, then 50 µL was added to each well of the compound-containing 96-well plates. This gave final cell concentration of 5×10^5 CFU/mL, final volume 100 µL and 3% maximum DMSO concentration. Compound concentration was typically from 64 to 0.03 µg/mL. An antibiotic standard was included on each 96 well plate as well as a positive growth control (no compound) and sterility control (no bacteria). All the plates were covered and incubated at 37 °C for 24 h. MICs were the lowest concentration showing no visible growth.
# [3] = test system: C. difficile NAP1/027 CD26A54_R; assay: MIC broth microdilution, metronidazole resistant C. difficile CD26A54_R; type: cell-based, Clostridium difficile; conditions: Clostridioides difficile
# [4] = test system: C. difficile 630 ATCC BAA-1382; assay: MIC broth microdilution, C. difficile 630; type: cell-based, Clostridium difficile; conditions: Clostridioides difficile, ATCCBAA1382, MtzS, 24 h, median of at least n = 4
# Description: as §1, §2, §3
# [5] = 24 hr incubation, read-out: MIC C. difficile NAP1/027 CD26A54_S 24 hr
# [6] = CD26A54_S, MtzS (intermediary), 48 h growth, read-out: MIC C. difficile NAP1/027 CD26A54_S 48 h
# [7] = 24 hr incubation, read-out: MIC C. difficile NAP1/027 CD26A54_R 24 hr
# [8] = CD26A54_R, MtzR, 48 h growth, BHIS broth, n = 8, read-out: MIC C. difficile NAP1/027 CD26A54_R 48 h
smiles,measurement,setting,value
"COc1ccc(-c2cn(CCn3c([N+](=O)[O-])cnc3C)nn2)cc1 [Compound 4b, 1-(2-(2-methyl-5-nitro-1H-imidazol-1-yl)ethyl)-4-(4-methoxyphenyl)-1H-1,2,3-triazole]",MIC,[1]; [5],1 µg/mL
same,MIC,[1]; [6],1 µg/mL
same,EC50,G. lamblia 713-M3 (713M),1000 nM
same,MIC,[2],0.25 to 0.5 µg/mL
same,MIC,[3]; [7],4 µg/mL
same,MIC,[3]; [8],4 µg/mL
same,MIC,[4],0.5 µg/mL
"Cc1ncc([N+](=O)[O-])n1CCn1cc(-c2ccc(Cl)cc2)nn1 [Compound 4c, 1-(2-(2-methyl-5-nitro-1H-imidazol-1-yl)ethyl)-4-(4-chlorophenyl)-1H-1,2,3-triazole]",MIC,[1]; [5],1 to 2 µg/mL
same,MIC,[1]; [6],2 µg/mL
same,EC50,G. lamblia 713-M3 (713M),3500 nM
same,MIC,[2],0.25 µg/mL
same,MIC,[3]; [7],8 µg/mL
same,MIC,[3]; [8],16 µg/mL
same,MIC,[4],0.5 µg/mL
"Cc1ncc([N+](=O)[O-])n1CCn1cc(-c2ccc(Cl)c(Cl)c2)nn1 [Compound 4d, 1-(2-(2-methyl-5-nitro-1H-imidazol-1-yl)ethyl)-4-(3,4-dichlorophenyl)-1H-1,2,3-triazole]",MIC,[1]; [5],1 µg/mL
same,MIC,[1]; [6],1 µg/mL
same,EC50,G. lamblia 713-M3 (713M),1200 nM
same,MIC,[2],0.5 to 1 µg/mL
same,MIC,[3]; [7],8 to 16 µg/mL
same,MIC,[3]; [8],8 to 16 µg/mL
same,MIC,[4],0.5 µg/mL
"Cc1ccc(-c2cn(CCn3c([N+](=O)[O-])cnc3C)nn2)cc1 [Compound 4e, 1-(2-(2-methyl-5-nitro-1H-imidazol-1-yl)ethyl)-4-(p-tolyl)-1H-1,2,3-triazole]",MIC,[1]; [5],1 µg/mL
same,MIC,[1]; [6],1 µg/mL
same,EC50,G. lamblia 713-M3 (713M),1000 nM
same,MIC,[2],0.25 µg/mL
same,MIC,[3]; [7],2 µg/mL
same,MIC,[3]; [8],2 µg/mL
same,MIC,[4],0.5 µg/mL
"COC(=O)c1cn(CCn2c([N+](=O)[O-])cnc2C)nn1 [Compound 4f, 1-(2-(2-methyl-5-nitro-1H-imidazol-1-yl)ethyl)-4-(methoxycarbonyl)-1H-1,2,3-triazole]",MIC,[1]; [5],1 µg/mL
same,MIC,[1]; [6],2 µg/mL
same,EC50,G. lamblia 713-M3 (713M),3100 nM
same,MIC,[2],1 µg/mL
same,MIC,[3]; [7],4 µg/mL
same,MIC,[3]; [8],4 µg/mL
same,MIC,[4],1 µg/mL
"Cc1ncc([N+](=O)[O-])n1CCn1cc(-c2ccccn2)nn1 [Compound 4h, 1-(2-(2-methyl-5-nitro-1H-imidazol-1-yl)ethyl)-4-(2-pyridinyl)-1H-1,2,3-triazole.xTFA]",MIC,[1]; [5],1 µg/mL
same,MIC,[1]; [6],1 µg/mL
same,EC50,G. lamblia 713-M3 (713M),950 nM
same,MIC,[2],0.5 µg/mL
same,MIC,[3]; [7],2 µg/mL
same,MIC,[3]; [8],4 µg/mL
same,MIC,[4],0.5 µg/mL
"Cc1ncc([N+](=O)[O-])n1CCn1cc(Cc2ccccc2)nn1 [Compound 4k, 1-(2-(2-methyl-5-nitro-1H-imidazol-1-yl)ethyl)-4-benzyl-1H-1,2,3-triazole]",MIC,[1]; [5],1 µg/mL
same,MIC,[1]; [6],1 µg/mL
same,EC50,G. lamblia 713-M3 (713M),1100 nM
same,MIC,[2],0.25 to 0.5 µg/mL
same,MIC,[3]; [7],2 µg/mL
same,MIC,[3]; [8],4 µg/mL
same,MIC,[4],0.5 µg/mL
"Cc1ncc([N+](=O)[O-])n1CCn1cc(C(O)c2ccccc2)nn1 (stereo not shown) [Compound 4l, 1-(2-(2-methyl-5-nitro-1H-imidazol-1-yl)ethyl)-4-(1-phenyl-1-hydroxylmethyl)-1H-1,2,3-triazole]",MIC,[1]; [5],2 µg/mL
same,MIC,[1]; [6],2 µg/mL
same,EC50,G. lamblia 713-M3 (713M),3000 nM
same,MIC,[2],0.5 µg/mL
same,MIC,[3]; [7],4 µg/mL
same,MIC,[3]; [8],4 µg/mL
same,MIC,[4],1 µg/mL
"Cc1ncc([N+](=O)[O-])n1CCn1cc(CN(C)Cc2ccccc2)nn1 [Compound 4m, 1-(2-(2-methyl-5-nitro-1H-imidazol-1-yl)ethyl)-4-(N-benzyl, N-methylaminomethyl)-1H-1,2,3-triazole]",MIC,[1]; [5],2 µg/mL
same,MIC,[1]; [6],2 µg/mL
same,EC50,G. lamblia 713-M3 (713M),2200 nM
same,MIC,[2],1 to 2 µg/mL
same,MIC,[3]; [7],8 µg/mL
same,MIC,[3]; [8],8 µg/mL
same,MIC,[4],2 µg/mL
"Cc1ncc([N+](=O)[O-])n1CCn1cc(-c2ccsc2)nn1 [Compound 4n, 1-(2-(2-methyl-5-nitro-1H-imidazol-1-yl)ethyl)-4-(thiophen-3-yl)-1H-1,2,3-triazole]",MIC,[1]; [5],1 µg/mL
same,MIC,[1]; [6],1 µg/mL
same,EC50,G. lamblia 713-M3 (713M),900 nM
same,MIC,[2],0.25 to 0.5 µg/mL
same,MIC,[3]; [7],2 µg/mL
same,MIC,[3]; [8],2 µg/mL
same,MIC,[4],0.5 µg/mL
